Source: ChEMBL document CHEMBL1153865, “The metabolism of CYP2C9 and CYP2C19 for gliclazide by homology modeling and docking study” (Eur J Med Chem, 2009)

Legend:
Type in all cases: ADME
Cytochrome P450 2C19 [1] = target: T1, Cytochrome P450 2C19 (Homo sapiens, UniProt P33261); experiment: Inhibition of CYP2C19
Cytochrome P450 2C19 [2] = target: T1, Cytochrome P450 2C19; experiment: Activity at recombinant CYP2C19 by Michaelis-Menten method; settings: recombinant enzyme
Cytochrome P450 2C9 [3] = target: T2, Cytochrome P450 2C9 (Homo sapiens, UniProt P11712); experiment: Activity at recombinant CYP2C9 by Michaelis-Menten method; settings: recombinant enzyme
Cytochrome P450 2C9 [4] = target: T2, Cytochrome P450 2C9; experiment: Inhibition of CYP2C9 assessed as decrease in catalytic reaction velocity at 200 uM by substrate-inhibition assay
Cytochrome P450 2C19 [5] = target: T1, Cytochrome P450 2C19; experiment: Inhibition of CYP2C19 assessed as decrease in catalytic reaction velocity at 100 uM by substrate-inhibition assay

T1 sequence (P33261 whole entry): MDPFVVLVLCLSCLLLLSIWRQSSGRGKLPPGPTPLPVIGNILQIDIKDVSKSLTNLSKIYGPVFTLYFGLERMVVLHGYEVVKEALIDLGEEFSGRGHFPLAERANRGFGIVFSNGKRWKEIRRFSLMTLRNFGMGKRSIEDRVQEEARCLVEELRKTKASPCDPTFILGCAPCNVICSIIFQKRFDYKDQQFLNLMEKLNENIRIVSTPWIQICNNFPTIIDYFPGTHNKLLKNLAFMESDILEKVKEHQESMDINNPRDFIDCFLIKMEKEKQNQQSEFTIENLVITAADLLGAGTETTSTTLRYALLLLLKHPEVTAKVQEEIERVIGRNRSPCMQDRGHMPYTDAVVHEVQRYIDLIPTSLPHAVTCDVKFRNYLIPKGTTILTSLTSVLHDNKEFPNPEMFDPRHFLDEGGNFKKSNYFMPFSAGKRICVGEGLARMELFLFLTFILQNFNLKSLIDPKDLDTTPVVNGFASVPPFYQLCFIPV
T2 sequence (P11712 whole entry): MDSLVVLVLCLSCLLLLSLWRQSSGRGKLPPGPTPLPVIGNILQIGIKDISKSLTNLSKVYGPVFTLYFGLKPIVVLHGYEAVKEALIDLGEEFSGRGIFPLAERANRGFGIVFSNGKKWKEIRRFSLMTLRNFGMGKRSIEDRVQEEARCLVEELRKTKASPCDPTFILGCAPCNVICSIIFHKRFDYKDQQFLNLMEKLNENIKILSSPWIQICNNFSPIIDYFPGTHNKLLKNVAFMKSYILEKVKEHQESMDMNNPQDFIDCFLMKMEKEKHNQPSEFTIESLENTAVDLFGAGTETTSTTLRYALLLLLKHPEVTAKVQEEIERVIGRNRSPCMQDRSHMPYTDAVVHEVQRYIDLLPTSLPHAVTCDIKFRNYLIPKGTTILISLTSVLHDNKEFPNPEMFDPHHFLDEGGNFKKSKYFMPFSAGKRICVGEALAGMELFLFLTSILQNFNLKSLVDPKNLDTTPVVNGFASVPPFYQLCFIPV

SMILES | Ki (Cytochrome P450 2C19 [1]) [µM] | Vmax (Cytochrome P450 2C19 [2]) [pmol/min] | Vmax (Cytochrome P450 2C9 [3]) [pmol/min] | inhibition (INH) (Cytochrome P450 2C9 [4]) | inhibition (INH) (Cytochrome P450 2C19 [5])
CCC1(c2ccccc2)C(=O)NC(=O)N(Cc2ccccc2)C1=O (configuration not stated) | 79 | – | – | – | –
Cc1ccc(S(=O)(=O)NC(=O)NN2C[C@@H]3CC[C@@H](O)[C@@H]3C2)cc1 | – | 14.9 | 0.6 | – | –
Cc1ccc(S(=O)(=O)NC(=O)NN2CC3CCCC3C2)cc1 (configuration not stated) [GLICLAZIDE] | – | – | – | Not Active | Not Active
O=C(NN1C[C@H]2CCC[C@H]2C1)NS(=O)(=O)c1ccc(CO)cc1 [METHYLHYDROXYLGLICLAZIDE] | – | 12.1 | 0.6 | – | –
